According to patent publication US20260216121A1, “3AH-CYCLOPENTA[B]BENZOFURAN-3A-YL AS RAS INHIBITORS” (SJP BIOTEC GMBH, priority 2023, published 2026):
Read-outs that look alike come from different tables or passages of the source.

Columns and labels:
[1] = Unbound fraction in human plasma (equilibrium dialysis); assay type: in vitro ADME; settings: pH 7.4, dialysis 4 hours at 37 °C
Description: (§1) After administration, a certain amount of drug is in the blood or plasma. Of the total amount in the blood or plasma, some is bound to proteins (or other species in the blood or plasma). Only unbound drug is available e.g., for drug-target interactions. Therefore, the higher the unbound fraction that is available in the blood or plasma, the more is available for binding the drug to a target. The less unbound drug is available in the blood or plasma e.g., because it is involved in competitive binding to, for example, albumin, the less is available for desired drug-target interaction. The protocol for determining the unbound fraction and pharmacokinetics is routine practice and known to the skilled person.
HT-Dialysis plates (Model HTD 96 b, Cat #1006) and the dialysis membrane (molecular weight cut off 12-14 KDa, Cat #1101) were purchased from HT Dialysis LLC (Gales Ferry, CT).
Dialysis Buffer (100 mM sodium phosphate and 150 mM NaCl, pH 7.4±0.1)
Stop Solution (Acetonitrile containing tolbutamide at 200 ng/mL, labetalol at 200 ng/mL)
On the day of experiment, the plasma was thawed under running cold tap water and centrifuged at 3220×g for 5 min to remove any clots. The pH value was checked and recorded. […]
The dialysis membrane was pretreated according to the manufacturer's instructions: the dialysis membrane strips were soaked in ultra-pure water at room temperature for approximately 1 hr. Afterwards, each membrane strip that contains 2 membranes was separated and soaked in ethanol:water (20:80 v:v) for approximately 20 min, after which it was ready for use or was stored in the solution at 2-8° C. for up to 1 month. […]
The % Unbound, % Bound and % Recovery were calculated using the following equations:
[formula] […] [formula] • F=Free compound concentration as determined by the calculated concentration on the buffer side of the membrane • T=Total compound concentration as determined by the calculated concentration on the matrix side of the membrane • T0=Total compound concentration as determined by the calculated concentration in matrix before dialysis

KRAS G12V = molecular target: T1, KRAS G12V (Homo sapiens, UniProt P01116, G12V); experiment: NanoBiT assay for RAS GTP-loading (LgBit-KRAS G12V / SmBit-CRAF-RBD) in HeLa cells; assay type: cell-based
T1 construct: expressed in transfected cells; host or cells: HeLa
Procedure: (§2) NanoBiT assay for the RAS GTP-loading was performed in HeLa cells transfected with LgBit-K, N and HRAS G12V and SmBit-CRAF-RBD. Cells were treated with compounds 1 or C-1 for 2 h in serum-free DMEM (Dulbecco's modified Eagle's Medium). After incubation, the substrate for NanoLuc was added, and the luminescence was measured using a multiplate reader. Data were normalized to cells transfected with the indicated mutant and exposed to DMSO for 2 h. DMSO-treated cells were set as 1. The results shown are mean from 3 independent experiments.
(§3) HeLa cells were harvested with 0.05% Trypsin/0.02% EDTA in PBS and seeded in 6 well or 12 well cell culture plates at the concentration of 5×10^4 cells in complete DMEM (2 ml for 6 well plate and 1 ml for 12 well plate). After 1 day from seeding, the DNA were transfected with Flag tagged Ras or NanoBiT plasmid using PEI/PBS solution.
(§4) The plasmids were transfected to HeLa cells and the cells were harvested after 1 day of transfection. The cells were seeded to 96 well white plate. Next day, the medium was changed to serum free DMEM for 2 h with compounds. After incubation, Nano Glo assay was performed. The luminescence was measured using Tecan SPARKS (Tecan). IC50 calculations by non-linear regression were conducted with GraphPad Prism 9.

iv (intravenous) PK = assay type: in vivo; settings: for AUCinf(h*nM) Free / C average (nM) free / Cmax (nM), Free / AUC(0-inf) / Cmax / half-life: 2 mg/kg; for AUCinf(h*nM) Free / C average (nM) free / Cmax (nM), Free / half-life: i.v.; for Unbound clearance: Table 4, other values of the table equal the 2 mg/kg i.v. data; for AUC(0-inf) / Cmax / half-life: in vivo, iv; for half-life: read-out: T½ (converted)
Description: as §1

oral PK = assay type: in vivo; settings: for AUC(0-inf) / Cmax / average free concentration at 24 h / half-life: in vivo; for average free concentration at 24 h: read-out: C average (nM) free; for half-life: read-out: T½ (converted)
Description: as §1

H358 = experiment: MTT assay for cell viability, H358; assay type: cell-based; settings: Homo sapiens, NCI-H358, 48 h, mean from 3 independent experiments
Procedure: (§5) Cells with RAS mutations were treated with compounds 1 and C-1 for 48 h and cell viability was evaluated by MTT assay. The results shown are mean from 3 independent experiments.
(§6) HCT-116 were authenticated by Eurofin genomics and cultured in DMEM (10% heat inactivated FBS). sNF96.2 were purchased from ATCC and cultured in DMEM (10% heat inactivated FBS+1 mM Na Pyruvate). ASPC-1 cells were purchased from DSMZ and cultured in RPMI-1640 (10% heat inactivated FBS). NCI-H358 were purchased from ATCC and cultured in RPMI-1640 (10% heat inactivated FBS). T24 and HCT-116 cells were cultured in Mccoy's 5A medium (10% heat inactivated FBS). HT-1080 cells were cultured in EMEM (10% heat inactivated FBS+1 mM Na Pyruvate).
(§7) Cancer cells were seeded in 96 well plates (5×10^3 cells/well) in 80 μl in growth medium and cultured for 1 day in the incubator. Next day, 20 μl of compounds containing growth medium was added to each well and the cells were cultured for 48 h. After incubation with compounds, 10 μl of MTT solution was added to the wells and incubated for 2-4 hours. After incubation with MTT, solubilization buffer was added and incubated over night. MTT was measured at O.D. 570 nm with a plate reader (Tecan). IC50 calculations by non-linear regression were conducted with GraphPad Prism 9.

NRAS G12V = molecular target: T2, NRAS G12V (Homo sapiens, UniProt P01111, G12V); experiment: NanoBiT assay for RAS GTP-loading (LgBit-NRAS G12V / SmBit-CRAF-RBD) in HeLa cells; assay type: cell-based
T2 construct: expressed in transfected cells; host or cells: HeLa
Procedure: as §2, §3, §4

sNF96.2 = experiment: MTT assay for cell viability, sNF96.2; assay type: cell-based; settings: 48 h, mean from 3 independent experiments
Procedure: as §5, §6, §7

T24 = experiment: MTT assay for cell viability, T24; assay type: cell-based; settings: Homo sapiens, T-24, 48 h, mean from 3 independent experiments
Procedure: as §5, §6, §7

HT-1080 = experiment: MTT assay for cell viability, HT-1080; assay type: cell-based; settings: Homo sapiens, 48 h, mean from 3 independent experiments
Procedure: as §5, §6, §7

HRAS G12V = molecular target: T3, HRAS G12V (Homo sapiens, UniProt P01112, G12V); experiment: NanoBiT assay for RAS GTP-loading (LgBit-HRAS G12V / SmBit-CRAF-RBD) in HeLa cells; assay type: cell-based
T3 construct: expressed in transfected cells; host or cells: HeLa
Procedure: as §2, §3, §4

HCT-116 = experiment: MTT assay for cell viability, HCT-116; assay type: cell-based; settings: Homo sapiens, 48 h, mean from 3 independent experiments
Procedure: as §5, §6, §7

ASPC1 = experiment: MTT assay for cell viability, ASPC1; assay type: cell-based; settings: Homo sapiens, 48 h, mean from 3 independent experiments
Procedure: as §5, §6, §7

[2] = IC50 (nM, KRAS G12V), as listed in the PK tables 1-4, assay not named

T1 sequence (P01116 1-186 isoform P01116-2 G12V limits assumed): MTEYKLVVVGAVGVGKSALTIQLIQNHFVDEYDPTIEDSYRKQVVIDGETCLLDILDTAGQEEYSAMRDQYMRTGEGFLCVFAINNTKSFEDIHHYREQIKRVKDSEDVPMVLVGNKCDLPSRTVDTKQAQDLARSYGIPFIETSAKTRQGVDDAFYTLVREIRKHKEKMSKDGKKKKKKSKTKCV
T2 sequence (P01111 1-186 G12V limits assumed): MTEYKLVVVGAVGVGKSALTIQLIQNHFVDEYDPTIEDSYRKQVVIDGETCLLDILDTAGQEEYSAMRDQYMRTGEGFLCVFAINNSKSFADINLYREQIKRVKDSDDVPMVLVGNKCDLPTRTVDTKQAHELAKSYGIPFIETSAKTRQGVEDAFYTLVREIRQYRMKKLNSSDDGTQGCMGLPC
T3 sequence (P01112 1-186 G12V limits assumed): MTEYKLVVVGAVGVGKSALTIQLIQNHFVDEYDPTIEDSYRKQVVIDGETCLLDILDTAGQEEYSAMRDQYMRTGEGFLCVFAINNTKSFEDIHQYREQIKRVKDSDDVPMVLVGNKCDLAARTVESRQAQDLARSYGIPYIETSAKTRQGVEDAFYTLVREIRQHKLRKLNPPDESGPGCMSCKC

Structure (SMILES)	fraction unbound at 4 h, 2 µM [1]	IC50 (KRAS G12V; [2])	AUCinf(h*nM) Free (iv (intravenous) PK)	C average (nM) free (iv (intravenous) PK)	Cmax (nM), Free (iv (intravenous) PK)	Unbound clearance (iv (intravenous) PK)	AUC(0-inf) (iv (intravenous) PK)	Cmax (iv (intravenous) PK)	half-life (iv (intravenous) PK)	AUCinf(h*nM) Free (oral PK; 10 mg/kg)	Cmax (nM), Free (oral PK; 10 mg/kg)	AUC(0-inf) (oral PK; 10 mg/kg)	Cmax (oral PK; 10 mg/kg)	average free concentration at 24 h (oral PK; 10 mg/kg)	half-life (oral PK; 10 mg/kg)	IC50 (H358)	IC50 (sNF96.2)	IC50 (T24)	IC50 (HT-1080)	IC50 (HCT-116)	other results
COc1cc(OC)c2c(c1)O[C@@]1(c3ccc(C#N)cc3)[C@H](c3ccccc3)C[C@@H](O)[C@@]21O (single isomer, unassigned) [Compound 2]	0.025	5.4 nM	51.8 nM·h	2.2 nM	43.7 nM	1580.9 mL/min/kg	2.1 µM·h	1700 nM	240 min	26.6 nM·h	21.4 nM	1.1 µM·h	900 nM	1.1 nM	78 min						
COc1cc(OC)c2c(c1)O[C@@]1(c3ccc(C#N)cc3)[C@H](c3cccc(F)c3)C[C@@H](O)[C@@]21O (single isomer, unassigned) [Compound 1]	0.026	8.5 nM	19.8 nM·h	0.8 nM	30.4 nM	3683.3 mL/min/kg	0.8 µM·h	1200 nM	54 min							15.6 nM	3.69 nM	13.2 nM	5.39 nM	8.99 nM	IC50 (KRAS G12V; IC50 (nM) KRAS G12V, NanoBiT, HeLa cells, 2 h in serum-free DMEM): 16.5 nM; IC50 (NRAS G12V): 20.2 nM; IC50 (HRAS G12V): 13.6 nM; IC50 (ASPC1): 11.9 nM; AUCinf(h*nM) Free (oral PK; 50 mg/kg): 378.6 nM·h; Cmax (nM), Free (oral PK; 50 mg/kg): 105.3 nM; AUC(0-inf) (oral PK; 50 mg/kg): 14.6 µM·h; Cmax (oral PK; 50 mg/kg): 4100 nM; average free concentration at 24 h (oral PK; 50 mg/kg): 15.8 nM; half-life (oral PK; 50 mg/kg): 210 min
COc1cc(OC)c2c(c1)O[C@@]1(c3ccc(Cl)cc3)[C@H](c3ccccc3)C[C@@H](O)[C@@]21O [Compound C-1, (1R,3S,3aR,8bS)-3a-(4-chlorophenyl)-6,8-dimethoxy-3-phenyl-1,2,3,3a-tetrahydro-8bH-cyclopenta[b]benzofuran-1,8b-diol, reference compound]	0.009		7.9 nM·h	0.3 nM	14.5 nM	9689.7 mL/min/kg	0.9 µM·h	1700 nM	78 min	4.9 nM·h	2.3 nM	0.6 µM·h	300 nM	0.2 nM	102 min	40 nM	7.22 nM	28.5 nM	18 nM	21.9 nM	IC50 (KRAS G12V; NanoBiT, HeLa cells, 2 h in serum-free DMEM, read-out: IC50 (nM) KRAS G12V): 56.6 nM; IC50 (KRAS G12V; as listed in the PK tables 1-4, assay not named, read-out: IC50 (nM, KRAS G12V)): 29 nM; IC50 (NRAS G12V; NanoBiT, HeLa cells, 2 h in serum-free DMEM, read-out: IC50 (nM) NRAS G12V): 61.4 nM; IC50 (HRAS G12V; NanoBiT, HeLa cells, 2 h in serum-free DMEM, read-out: IC50 (nM) HRAS G12V): 53.5 nM; IC50 (ASPC1): 26.6 nM; AUCinf(h*nM) Free (oral PK; 50 mg/kg): 109.8 nM·h; Cmax (nM), Free (oral PK; 50 mg/kg): 34.3 nM; AUC(0-inf) (oral PK; 50 mg/kg): 12.6 µM·h; Cmax (oral PK; 50 mg/kg): 3900 nM; average free concentration at 24 h (oral PK; 50 mg/kg): 4.6 nM; half-life (oral PK; 50 mg/kg): 162 min
